Experimental findings from patent US10947251B2, “Therapeutic compounds and methods of use thereof” (GENENTECH, INC., priority 2018, dated 2021) are described below.

SMILES strings stand for the structures.

Assay [1] concerns the target T1, hNav1.7 (Homo sapiens (Human), UniProt Q15858). Kind of assay: Tritiated compound binding to membranes from cells heterologously expressing hNav1.7 and the β1 subunit (LBA). The following applies: competitive binding vs [3H]compound, membranes with hNav1.7 and β1 subunit; read-out: Nav1.7 LBA EVO IC50. As to the method: Example 39A. Tritiated Compound Binding to Membranes Isolated from Cells that Heterologously Express hNav1.7 and the β1 Subunit
Preparation of membranes containing recombinantly expressed sodium channels: Frozen recombinant cell pellets were thawed on ice and diluted to 4 times the cell pellet weight with ice cold 50 mM Tris HCl, pH 7.4 buffer. The cell suspensions were homogenized on ice using a motorized glass dounce homogeniser. Homogenates were further diluted 8.4 times with ice cold 50 mM Tris HCl, pH 7.4 buffer and then centrifuged at 200×g at 4° C. for 15 min. The supernatants were collected and centrifuged at 10000×g at 4° C. for 50 min. The pellets were then re-suspended in 100 mM NaCl, 20 mM Tris HCl, pH 7.4 buffer containing 1% v/v protease inhibitors (Calbiochem) and re-homogenized on ice. The homogenized membranes were then processed through a syringe equipped with a 26 gauge needle. Protein concentrations were determined by Bradford Assay and the membranes were stored at −80° C.
Saturation experiments. A competitive NaV1.7 inhibitor having a methyl group was tritiated. Three tritiums were incorporated in place of methyl hydrogens to generate [^3H]compound. Binding of this radioligand was performed in 5 mL borosilicate glass test tubes at room temperature. Binding was initiated by adding membranes to increasing concentrations of [^3H]compound in 100 mM NaCl, 20 mM Tris HCl, pH 7.4 buffer containing 0.01% w/v bovine serum albumin (BSA) for 18 h. Non-specific binding was determined in the presence of 1 μM unlabeled compound. After 18 h, the reactants were filtered through GF/C glass fiber filters presoaked in 0.5% w/v polyethylene imine. Filters were washed with 15 mL ice cold 100 mM NaCl, 20 mM Tris HCl, pH7.4 buffer containing 0.25% BSA to separate bound from free ligand. [^3H]compound bound to filters was quantified by liquid scintillation counting.
Binding reactions were performed in 96-well polypropylene plates at room temperature for 18 h. In 360 μL, membranes were incubated with 100 pM [^3H]compound and increasing concentrations of Test Compound. Non-specific binding was defined in the presence of 1 μM unlabeled compound. Reactions were transferred and filtered through 96-well glass fiber/C filter plates presoaked with 0.5% polyethylene imine. The filtered reactions were washed 5 times with 200 μL ice cold buffer containing 0.25% BSA. Bound radioactivity was determined by liquid scintillation counting.
For saturation experiments, non-specific binding was subtracted from total binding to provide specific binding and these values were recalculated in terms of pmol ligand bound per mg protein. Saturation curves were constructed and dissociation constants were calculated using the single site ligand binding model: Beq=(Bmax*X)/(X+Kd), where Beq is the amount of ligand bound at equilibrium, Bmax is the maximum receptor density, Kd is the dissociation constant for the ligand, and X is the free ligand concentration. For competition studies percent inhibition was determined and IC50 values were calculated using a 4 parameter logistic model (% inhibition=(A+((B−A)/(1+((x/C)^D)))) using XLfit, where A and B are the maximal and minimum inhibition respectively, C is the IC50 concentration and D is the (Hill) slope.
Example 39B. Tritiated Compound Binding to Membranes Isolated from Cells that Heterologous Express hNav1.7 and the β1 Subunit
Following the procedure described in Example 39A, and making modifications as required to: centrifuge supernatants at 100000×g instead of 10000×g; re-suspend pellets in a buffer containing 0.01% BSA in addition to 100 mM NaCl, 20 mM Tris HCl, pH 7.4 buffer, and 1% v/v […]; and storing membranes at −80° C. in single use aliquots instead of pooled.
Saturation experiments: Following the procedure described in Example 243A, and making modifications as required to incubate [3H]compound for 3 hours instead of 18 hours. […]

Assay [2] has as its target T1, hNav1.7. The assay is described as follows: Electrophysiological assay (EP), voltage clamp on Syncropatch 384PE. Type of assay: cell-based. The following applies: CHO cells expressing Nav1.7, holding potential −50 mV, 7.5 min compound incubation; read-out: EP_SP hNav1.7 EVO IC50. The source says: Example 39C. Electrophysiological Assay (EP) (In Vitro Assay)
Patch voltage clamp electrophysiology allows for the direct measurement and quantification of block of voltage-gated sodium channels (NaV's), and allows the determination of the time- and voltage-dependence of block which has been interpreted as differential binding to the resting, open, and inactivated states of the sodium channel (Hille, B., Journal of General Physiology (1977), 69: 497-515).
The following voltage clamp electrophysiology studies were performed on representative compounds using cells heterologously expressing Nav1.7 or Nav1.5 channels. cDNAs for Nav1.7 (NM_002977) and Nav1.5 (AC137587) were stably expressed in Chinese Hamstr Ovary (CHO) cells and CHL (Chinese Hamster Lung) cells respectively. Sodium currents were measured in the whole-cell configuration using Syncropatch 384PE (Nanlon Technologies, Germany). 1NPC®-384 chips with custom medium resistance and single hole mode are used. Internal solution consists of (in mM): 110 […], 10 CsCl, 20 EGTA, and 10 Hepes (pH adjusted to 7.2); and external solution contains (in mM): 60 NMDG, 80 NaCl, 4 KCl, 1 MgCl2, 2 CaCl2, 2 D-Glucose monohydrate, 10 Hepes (pH adjusted to 7.4 with NaOH).
After system flushing, testing compounds are dissolved in external solution containing 0.1% Pluronic F-127. The chip is moved into the measuring head and the instrument primes the chip with external and internal solutions. 10 l cells are added to the chip from a cell hotel, and a negative pressure of −50 mBar is applied to form a seal. Following treatment with seal enhancer solution and wash-off with external solution, negative pressure of −250 mbar is applied for 1 second to achieve the whole-cell configuration, followed by three washing steps in external solution. 20 µl of compounds is added to 40 µl in each well (1:3 dilution of compounds), and after mixing, 20 l is removed so the volume is retained at 40 ul. After approximately 13 minutes recordings, 20 µl/well of 2 uM TTX, or 333 uM Tetracaine (for Nav1.5) is added to achieve full block.
For voltage protocol, an holding potential of −50 mV is applied during the whole experiment. A depolarizing step is applied to −10 mV for 10 ms, followed by a hyperpolarization step to −150 mV for 20 ms to allow channel recovery from inactivation. A second depolarizing step is applied from −150 mV to −10 mV for 10 ms, where currents were measured to derive blocking effects of compounds. Inhibition is determined based on 7.5 min of compound incubation.

For orientation: IC50 means the concentration that gives 50% inhibition. As for `COc1cc(-c2cccc(C(F)(F)F)c2)c(F)cc1N1C(=O)OC[C@@H]2CN(S(=O)(=O)Nc3ccon3)CC[C@H]21` [Example 33, (4aR,8aR)-1-(2-fluoro-5-methoxy-3′-(trifluoromethyl)-[1,1′-biphenyl]-4-yl)-N-(isoxazol-3-yl)-2-oxohexahydro-2H-pyrido[4,3-d][1,3]oxazine-6(4H)-sulfonamide], the half-maximal inhibitory concentration (IC50) in assay [1] turned out to be 0.112 µM; in assay [2] it was 0.0104 µM.
For the compound `COc1cc(-c2cccc(C(F)(F)F)c2)c(F)cc1N1C(=O)CC[C@@H]2CN(S(=O)(=O)Nc3ccon3)CC[C@@H]21` [Example 38, (4aR,8aS)-1-(2-fluoro-5-methoxy-3′-(trifluoromethyl)-[1,1′-biphenyl]-4-yl)-N-(isoxazol-3-yl)-2-oxooctahydro-1,6-naphthyridine-6(2H)-sulfonamide], the half-inhibitory concentration (IC50) in assay [1] was determined as 0.641 µM; in assay [2], 0.0107 µM.
On to `COc1cc(-c2cccc(C(F)(F)F)c2)c(F)cc1N1C(=O)CC[C@@H]2CN(S(=O)(=O)Nc3ccon3)CC[C@H]21` [Example 35, (4aR,8aR)-1-(2-fluoro-5-methoxy-3′-(trifluoromethyl)-[1,1′-biphenyl]-4-yl)-N-(isoxazol-3-yl)-2-oxooctahydro-1,6-naphthyridine-6(2H)-sulfonamide], for which the IC50 is 0.0493 µM in assay [1] and 0.00288 µM in assay [2].
The corresponding values for `COc1cc(-c2cccc(C(F)(F)F)c2)c(F)cc1N1C(=O)CO[C@@H]2CN(S(=O)(=O)Nc3ccon3)CC[C@H]21` [Example 3, (4aR,8aR)-1-(2-fluoro-5-methoxy-3′-(trifluoromethyl)-[1,1′-biphenyl]-4-yl)-N-(isoxazol-3-yl)-2-oxohexahydro-1H-pyrido[3,4-b][1,4]oxazine-6(7H)-sulfonamide] are 0.067 µM and 0.00226 µM.
On the same counts, the results for `COc1cc(-c2cccc(C(F)(F)F)c2)ccc1N1C(=O)CO[C@H]2CN(S(=O)(=O)Nc3ccon3)CC[C@@H]21` [Example 18, (4aS,8aS)-N-(isoxazol-3-yl)-1-(3-methoxy-3′-(trifluoromethyl)-[1,1′-biphenyl]-4-yl)-2-oxohexahydro-1H-pyrido[3,4-b][1,4]oxazine-6(7H)-sulfonamide] are 0.346 µM and 0.00586 µM.
Take `COc1cc(-c2cccc(C(F)(F)F)c2)c(F)cc1N1C(=O)CC[C@H]2CN(S(=O)(=O)Nc3ccon3)CCC21` (stereo in doubt) [Example 37, (4aS,8aR)-1-(2-fluoro-5-methoxy-3′-(trifluoromethyl)-[1,1′-biphenyl]-4-yl)-N-(isoxazol-3-yl)-2-oxooctahydro-1,6-naphthyridine-6(2H)-sulfonamide]: the IC50 in assay [1] was found to be 0.761 µM; in assay [2], 0.0129 µM.
On the same counts, the results for `COc1cc(-c2cccc(C(F)(F)F)c2)ccc1N1C(=O)CO[C@@H]2CN(S(=O)(=O)Nc3ccon3)CC[C@H]21` [Example 17, (4aR,8aR)-N-(isoxazol-3-yl)-1-(3-methoxy-3′-(trifluoromethyl)-[1,1′-biphenyl]-4-yl)-2-oxohexahydro-1H-pyrido[3,4-b][1,4]oxazine-6(7H)-sulfonamide] are 0.214 µM and 0.00603 µM.
As to `COc1cc(-c2cccc(C(F)(F)F)c2)c(F)cc1N1CCO[C@H]2CN(S(=O)(=O)Nc3ccncn3)CC[C@@H]21` [Example 28, (4aS,8aS)-1-(2-fluoro-5-methoxy-3′-(trifluoromethyl)-[1,1′-biphenyl]-4-yl)-N-(pyrimidin-4-yl)hexahydro-1H-pyrido[3,4-b][1,4]oxazine-6(7H)-sulfonamide], the results for the IC50 in assay [1] and in assay [2] were 0.0263 µM and 0.0021 µM, respectively.
On the same counts, the results for `COc1cc(-c2cccc(C(F)(F)F)c2)c(F)cc1N1C(=O)CO[C@H]2CN(S(=O)(=O)Nc3ccon3)CC[C@@H]21` [Example 4, (4aS,8aS)-1-(2-fluoro-5-methoxy-3′-(trifluoromethyl)-[1,1′-biphenyl]-4-yl)-N-(isoxazol-3-yl)-2-oxohexahydro-1H-pyrido[3,4-b][1,4]oxazine-6(7H)-sulfonamide] are 0.06 µM and 0.00352 µM.
For `COc1nc(-c2cccc(C(F)(F)F)c2)c(F)cc1N1C(=O)CO[C@@H]2CN(S(=O)(=O)Nc3ccon3)CC[C@H]21` [Example 21, (4aR,8aR)-1-(5-fluoro-2-methoxy-6-(3-(trifluoromethyl)phenyl)pyridin-3-yl)-N-(isoxazol-3-yl)-2-oxohexahydro-1H-pyrido[3,4-b][1,4]oxazine-6(7H)-sulfonamide], the values for the IC50 in assay [1] and in assay [2] were 2 µM and 0.0475 µM, respectively.
On to `COc1cc(-c2cccc(C(F)(F)F)c2)cc(F)c1N1C(=O)CO[C@@H]2CN(S(=O)(=O)Nc3ccon3)CC[C@H]21` [Example 19, (4aR,8aR)-1-(3-fluoro-5-methoxy-3′-(trifluoromethyl)-[1,1′-biphenyl]-4-yl)-N-(isoxazol-3-yl)-2-oxohexahydro-1H-pyrido[3,4-b][1,4]oxazine-6(7H)-sulfonamide], for which the values for the IC50 in assay [1] and in assay [2] were 0.831 µM and 0.05 µM, respectively.
`COc1cc(-c2cc(C(F)(F)F)ccc2F)c(F)cc1N1C(=O)CO[C@H]2CN(S(=O)(=O)Nc3ccon3)CC[C@@H]21` [Example 8, (4aS,8aS)-1-(2,2′-difluoro-5-methoxy-5′-(trifluoromethyl)-[1,1′-biphenyl]-4-yl)-N-(isoxazol-3-yl)-2-oxohexahydro-1H-pyrido[3,4-b][1,4]oxazine-6(7H)-sulfonamide]: the results for the IC50 in assay [1] and in assay [2] were 0.0828 µM and 0.00492 µM, respectively.
